{"source": "patent US20130158059A1", "about": "“NILOTINIB SALTS AND CRYSTALLINE FORMS THEREOF” (TEVA PHARMACEUTICAL INDUSTRIES LTD., priority 2010, published 2013)", "key": {"[1]": {"assay": "Polymorphic stability on exposure to ethanol or methanol vapors", "format": "physicochemical", "details": "exposed to ethanol or methanol vapors, about RT, about 1 hour to about 24 hours", "source_text": "As discussed above, Nilotinib HBr form XI has advantageous properties. In particular, the crystalline Nilotinib HBr form XI of the present invention is polymorphically stable. […] This stability is an advantage for the production, storage and processing of pharmaceuticals comprising Nilotinib HBr."}, "[2]": {"assay": "Thermal polymorphic stability (heating of the crystalline form)", "format": "physicochemical", "details": "heated up to 200° C.", "source_text": "As discussed above, Nilotinib L-tartrate Form IV has advantageous properties."}}, "note": "Where a name gives a salt, the structure may show the parent alone."}
{"molecule": "Cc1cn(-c2cc(NC(=O)c3ccc(C)c(Nc4nccc(-c5cccnc5)n4)c3)cc(C(F)(F)F)c2)cn1", "note": "[Nilotinib HBr form XI, Nilotinib hydrobromide]", "values": [{"measurement": "polymorphic stability (conversion to other forms of Nilotinib HBr)", "setting": "[1]", "result": "does not convert to other forms of Nilotinib HBr"}]}
{"molecule": "Nilotinib L-tartrate [Nilotinib L-tartrate Form IV]", "values": [{"measurement": "thermal polymorphic stability (conversion to other forms)", "setting": "[2]", "result": "does not convert to other forms"}]}
